Assay results as given in ChEMBL document CHEMBL1139128, “Structure-activity relationship analysis of a novel necroptosis inhibitor, Necrostatin-5” (Bioorg Med Chem Lett, 2007).
Calls of active or inactive are those of the source. The rule behind the calls is not given here.

System: Jurkat
Assay: Inhibition of TNF-alpha-induced necroptosis in FADD-deficient Jurkat T cells
Format: functional, cell-based
Design: concentration or dose not given beside the values
Conditions: for EC50: Jurkat

SMILES	Activity (Homo sapiens)	Activity	EC50 (Homo sapiens)
CCc1sc2nc(SC)n(-c3ccc(OC)cc3)c(=O)c2c1C	inactive		
Cc1ccc(-n2c(SCC#N)nc3sc4c(c3c2=O)CCCC4)cc1		48.6%	1.8 µM
CCN1CCc2sc3nc(SCC#N)n(-c4ccc(OC)cc4)c(=O)c3c2C1	inactive		
N#CCSc1nc2sc3c(c2c(=O)n1-c1ccc(OCc2ccccc2)cc1)CCCC3	inactive		
CCCCCSc1nc2sc3c(c2c(=O)n1-c1ccc(OC)cc1)CCCC3	inactive		
COc1ccc(-n2c(SCC#N)nc3sc4c(c3c2=O)CN(C(C)C)CC4)cc1	inactive		
N#CCSc1nc2sc3c(c2c(=O)n1-c1ccc(OC(F)(F)F)cc1)CCC3		70%	3.7 µM
N#CCSc1nc2sc3c(c2c(=O)n1-c1ccc(F)cc1)CCCC3		85.1%	0.24 µM
CN(C)c1ccc(-n2c(SCC#N)nc3sc4ccccc4c3c2=O)cc1	inactive		
CSc1nc2sc(C)c(C)c2c(=O)n1-c1ccc(OC(F)(F)F)cc1	inactive		
N#CCSc1nc2sc3c(c2c(=O)n1-c1ccc(OC(F)(F)F)cc1)CCCC3	inactive		
CSc1nc2sc3ccccc3c2c(=O)n1-c1ccc(OC(F)(F)F)cc1	inactive		
CSc1nc2sc3c(c2c(=O)n1-c1ccc(OCc2ccccc2)cc1)CCCC3	inactive		
C#CCSc1nc2sc(CC)c(C)c2c(=O)n1-c1ccc2c(c1)OCO2	inactive		
CCSc1nc2sc3c(c2c(=O)n1-c1ccc(OC)cc1)CCCC3	inactive		
Cc1sc2nc(SCC#N)n(-c3ccc(OC(F)(F)F)cc3)c(=O)c2c1C		63%	3.7 µM
CCCc1sc2nc(SCC)n(-c3ccc(OC)cc3)c(=O)c2c1C	inactive		
Cc1sc2nc(SCC#N)n(-c3ccc(OCc4ccccc4)cc3)c(=O)c2c1C	inactive		
CCOc1ccc(-n2c(SC)nc3sc(C)c(C)c3c2=O)cc1	inactive		
C#CCSc1nc2sc(C)c(C)c2c(=O)n1-c1ccc(OC)cc1		90.3%	4.86 µM
CSc1ccc(-n2c(SCC#N)nc3sc4c(c3c2=O)CCCC4)cc1		70%	2.33 µM
CCCSc1nc2sc3c(c2c(=O)n1-c1ccc(OC)cc1)CCC3	inactive		
O=c1c2c3c(sc2nc(SCc2ccccc2)n1-c1ccccc1)CCCC3	inactive		
Cc1ccc(-n2c(SCC#N)nc3sc4c(c3c2=O)CCCC4)cc1C		45%	16.7 µM
N#CCSc1nc2sc3c(c2c(=O)n1-c1ccc(F)cc1)CCC3		88.7%	0.89 µM

SMILES	Activity (Homo sapiens)	Activity	EC50 (Homo sapiens)
CCSc1nc2sc3c(c2c(=O)n1-c1ccc(OC)cc1)CCC3	inactive		
CSc1nc2sccc2c(=O)n1-c1ccccc1	inactive		
COC(=O)CSc1nc2sc3c(c2c(=O)n1-c1ccc(OC)cc1)CCCC3	inactive		
N#CCSc1nc2sc3c(c2c(=O)n1-c1ccccc1)CCCC3	inactive		
COc1ccc(-n2c(SC(=O)c3ccccc3)nc3sc4c(c3c2=O)CCCC4)cc1	inactive		
N#CCSc1nc2sc3c(c2c(=O)n1-c1ccc2c(c1)OCO2)CCCC3		100%	0.89 µM
COc1ccc(-n2c(SCC#N)nc3sc(C)cc3c2=O)cc1	inactive		
C=CCSc1nc2sc3c(c2c(=O)n1-c1ccc(OC)cc1)CCCC3	inactive		
COc1ccc(-n2c(SCc3ccc(C)cc3)nc3sc4c(c3c2=O)CCCC4)cc1	inactive		
CCc1c(C)sc2nc(SC)n(-c3ccc4c(c3)OCO4)c(=O)c12	inactive		
COc1ccc(-n2c(SC)nc3sc4c(c3c2=O)CCCC4)c(OC)c1	inactive		
COc1ccc(-n2c(SCC(=O)Nc3ccccc3C(F)(F)F)nc3sc4c(c3c2=O)CCCC4)cc1	inactive		
CCc1cc2c(=O)n(-c3ccc(OC)cc3)c(SCC#N)nc2s1	inactive		
N#CCSc1nc2sc3c(c2c(=O)n1-c1ccc(Cl)c(Cl)c1)CCCC3		39%	5.7 µM
C#CCSc1nc2sc3c(c2c(=O)n1-c1ccc(OC)cc1)CCC3		63.4%	2.49 µM
CCc1sc2nc(SC)n(-c3ccc(F)cc3)c(=O)c2c1C	inactive		
C#CCSc1nc2sc(C)c(C)c2c(=O)n1-c1ccc2c(c1)OCO2	inactive		
CSc1nc2sc3ccccc3c2c(=O)n1-c1ccc(F)cc1			3.06 µM
CSc1nc2sc(C)c(C)c2c(=O)n1-c1ccc2c(c1)OCO2		67%	1.11 µM
COc1ccc(CSc2nc3sc4c(c3c(=O)n2-c2ccc(OC)cc2)CCCC4)cc1	inactive		
COc1ccc(-n2c(SCC#N)nc3sccc3c2=O)cc1	inactive		
COc1ccc(-n2c(SCCO)nc3sc(C)c(C)c3c2=O)cc1		78%	7.26 µM
CCc1c(C)sc2nc(SCC#N)n(-c3ccc(OC)cc3)c(=O)c12		100%	1.08 µM
Cc1ccc(-n2c(SCC#N)nc3sc4c(c3c2=O)CCC4)cc1C	inactive		
COc1ccc(-n2c(SCC(C)=O)nc3sc4c(c3c2=O)CCC4)cc1	inactive		

SMILES	Activity (Homo sapiens)	Activity	EC50 (Homo sapiens)
COc1ccc(-n2c(SCc3ccccc3)nc3sc4c(c3c2=O)CCC4)cc1	inactive		
COc1ccc(-n2c(SCc3ccc([N+](=O)[O-])cc3)nc3sc4c(c3c2=O)CCCC4)cc1	inactive		
COc1ccc(-n2c(S(C)(=O)=O)nc3sc4c(c3c2=O)CCCC4)cc1	inactive		
CCSc1nc2sc(CC)c(C)c2c(=O)n1-c1ccc(OC)cc1	inactive		
C#CCSc1nc2sc(CC)c(C)c2c(=O)n1-c1ccc(OC)cc1	inactive		
CCOc1ccc(-n2c(SC)nc3sc4ccccc4c3c2=O)cc1	inactive		
CSc1nc2sc(C)c(C)c2c(=O)n1-c1ccc(N(C)C)cc1	inactive		
COc1ccc(-n2c(SCC#N)nc3sc4ccccc4c3c2=O)cc1		83.3%	0.18 µM
CSc1nc2sc3ccccc3c2c(=O)n1-c1ccc2c(c1)OCO2	inactive		
COc1ccc(-n2c(SCC(C)O)nc3sc4c(c3c2=O)CCCC4)cc1 (stereo not drawn)	inactive		
C#CCSc1nc2sc3c(c2c(=O)n1-c1ccc(OC)cc1)CCCC3		80.7%	6.08 µM
N#CCSc1nc2sc3c(c2c(=O)n1-c1cccc(Cl)c1)CCCC3		66.9%	5.1 µM
N#CCSc1nc2sc3c(c2c(=O)n1-c1ccc2c(c1)OCCO2)CCC3		100%	0.25 µM
Cc1ccc(-n2c(SCC#N)nc3sc(C)c(C)c3c2=O)cc1C		90.7%	2.79 µM
CCCC(=O)Sc1nc2sc3c(c2c(=O)n1-c1ccc(OC)cc1)CCCC3	inactive		
O=c1c2c3c(sc2nc(SCc2ccc([N+](=O)[O-])cc2)n1-c1ccccc1)CCCC3	inactive		
CSc1nc2sc3c(c2c(=O)n1-c1ccc(Cl)cc1C)CCCC3	inactive		
COc1ccc(-n2c(SC(C)=O)nc3sc4c(c3c2=O)CCCC4)cc1	inactive		
COc1ccc(-n2c(SCc3ccccc3)nc3sc4c(c3c2=O)CCCC4)cc1	inactive		
COc1ccc(-n2c(SCC(N)=O)nc3sc4c(c3c2=O)CCCC4)cc1	inactive		
N#CCSc1nc2sc3c(c2c(=O)n1-c1ccc(Br)cc1)CCCC3	inactive		
COc1ccc(-n2c([S+](C)[O-])nc3sc4c(c3c2=O)CCCC4)cc1 (stereo not drawn)	inactive		
CCSc1nc2sc(C)c(C)c2c(=O)n1-c1ccc(OC)cc1	inactive		
COc1ccc(-n2c(SCC#N)nc3sc4c(c3c2=O)CCCC4)cc1		100%	0.24 µM
CCCc1sc2nc(SC)n(-c3ccc(OC)cc3)c(=O)c2c1C	inactive		

SMILES	Activity (Homo sapiens)	Activity	EC50 (Homo sapiens)
CCCCSc1nc2sc3c(c2c(=O)n1-c1ccc(OC)cc1)CCCC3	inactive		
Cc1sc2nc(SCC#N)n(-c3ccc4c(c3)OCO4)c(=O)c2c1C		100%	1.65 µM
COc1ccc(-n2c(SC)nc3sc4c(c3c2=O)CN(C(C)C)CC4)cc1	inactive		
Cc1sc2nc(SCC#N)n(-c3ccc(N(C)C)cc3)c(=O)c2c1C	inactive		
Cc1ccc(-n2c(SCC#N)nc3sc4c(c3c2=O)CC(C)CC4)cc1C (stereo not drawn)		38%	16.7 µM
CCCc1sc2nc(SCC#N)n(-c3ccc(OC)cc3)c(=O)c2c1C	inactive		
COc1ccc(-n2c(SCC#N)nc3sc(C(C)C)c(C)c3c2=O)cc1	inactive		
CSc1nc2sc3c(c2c(=O)n1-c1ccc2c(c1)OCO2)CCCC3	inactive		
CCc1c(C)sc2nc(SCCO)n(-c3ccc4c(c3)OCO4)c(=O)c12	inactive		
COc1ccc(-n2c(SCC#N)nc3sc4c(c3c2=O)CCCC4)c(OC)c1	inactive		
N#CCSc1nc2sc3c(c2c(=O)n1-c1ccc(OC(F)(F)F)cc1)CCCCC3	inactive		
COc1ccc(-n2c(SCC(=O)O)nc3sc(C)c(C)c3c2=O)cc1	inactive		
COc1ccccc1-n1c(SCC#N)nc2sc3c(c2c1=O)CCCC3		51.2%	17.8 µM
CCCCCCSc1nc2sc3c(c2c(=O)n1-c1ccc(OC)cc1)CCCC3	inactive		
CSc1nc2sc3c(c2c(=O)n1-c1ccc(C)c(C)c1)CCC3	inactive		
CCN1CCc2sc3nc(SC)n(-c4ccccc4)c(=O)c3c2C1	inactive		
C=CCSc1nc2sc3c(c2c(=O)n1-c1ccccc1)CCCC3	inactive		
COc1ccc(-n2c(SCCl)nc3sc4c(c3c2=O)CCCC4)cc1		85%	2.22 µM
CCOc1ccc(-n2c(SCC#N)nc3sc4ccccc4c3c2=O)cc1	inactive		
CCOc1ccc(-n2c(SCC#N)nc3sc4c(c3c2=O)CCC4)cc1	inactive		
N#CCSc1nc2sc3c(c2c(=O)n1-c1ccccc1)CCCCC3	inactive		
Cc1sc2nc(SCC#N)n(-c3ccc(F)cc3)c(=O)c2c1C		87.6%	4.43 µM
CCCCCCCCCCCCCCc1sc2nc(SCC#N)n(-c3ccc(OC)cc3)c(=O)c2c1C	inactive		
